The NIST ThermoML archive (doi:10.1016/j.jct.2019.05.021)
± gives the expanded uncertainty stated by the source.

Test: xn = mol fraction of the nth substance listed
Conditions: 100 kPa, Liquid; for viscosity: Falling or rolling sphere viscometry; for mass density: Vibrating tube method

CCCCCCCCCC(=O)OC [methyl decanoate] + CC1CCCCC1
Conditions	mass density [kg/m3]	viscosity [mPa·s]
293.15 K, x2 = 0	872.25 ± 1.8	2.125 ± 0.047
293.15 K, x2 = 0.0999	865.57 ± 1.8	1.953 ± 0.043
293.15 K, x2 = 0.2	858.32 ± 1.7	1.783 ± 0.039
293.15 K, x2 = 0.3	850.46 ± 1.7	1.618 ± 0.035
293.15 K, x2 = 0.4001	841.94 ± 1.7	1.464 ± 0.032
293.15 K, x2 = 0.4998	832.57 ± 1.7	1.316 ± 0.028
293.15 K, x2 = 0.5999	822.32 ± 1.6	1.177 ± 0.025
293.15 K, x2 = 0.6999	811 ± 1.6	1.051 ± 0.023
293.15 K, x2 = 0.8	798.51 ± 1.6	0.933 ± 0.02
293.15 K, x2 = 0.9	784.68 ± 1.6	0.825 ± 0.018
298.15 K, x2 = 0	868.16 ± 1.8	1.909 ± 0.042
298.15 K, x2 = 0.0999	861.49 ± 1.7	1.758 ± 0.038
298.15 K, x2 = 0.2	854.23 ± 1.7	1.613 ± 0.035
298.15 K, x2 = 0.3	846.38 ± 1.7	1.473 ± 0.032
298.15 K, x2 = 0.4001	837.84 ± 1.7	1.339 ± 0.029
298.15 K, x2 = 0.4998	828.47 ± 1.7	1.209 ± 0.026
298.15 K, x2 = 0.5999	818.2 ± 1.6	1.084 ± 0.023
298.15 K, x2 = 0.6999	806.84 ± 1.6	0.969 ± 0.021
298.15 K, x2 = 0.8	794.31 ± 1.6	0.862 ± 0.019
298.15 K, x2 = 0.9	780.43 ± 1.6	0.765 ± 0.016
303.15 K, x2 = 0	864.06 ± 1.8	1.738 ± 0.038
303.15 K, x2 = 0.0999	857.38 ± 1.7	1.603 ± 0.035
303.15 K, x2 = 0.2	850.12 ± 1.7	1.474 ± 0.032
303.15 K, x2 = 0.3	842.25 ± 1.7	1.35 ± 0.029
303.15 K, x2 = 0.4001	833.72 ± 1.7	1.232 ± 0.027
303.15 K, x2 = 0.4998	824.32 ± 1.7	1.12 ± 0.024
303.15 K, x2 = 0.5999	814.03 ± 1.6	1.012 ± 0.022
303.15 K, x2 = 0.6999	802.63 ± 1.6	0.907 ± 0.02
303.15 K, x2 = 0.8	790.09 ± 1.6	0.807 ± 0.017
303.15 K, x2 = 0.9	776.16 ± 1.6	0.716 ± 0.015
308.15 K, x2 = 0	859.96 ± 1.7	1.588 ± 0.035
308.15 K, x2 = 0.0999	853.28 ± 1.7	1.47 ± 0.032
308.15 K, x2 = 0.2	846.01 ± 1.7	1.357 ± 0.03
308.15 K, x2 = 0.3	838.14 ± 1.7	1.247 ± 0.027
308.15 K, x2 = 0.4001	829.57 ± 1.7	1.142 ± 0.025
308.15 K, x2 = 0.4998	820.17 ± 1.6	1.038 ± 0.022
308.15 K, x2 = 0.5999	809.84 ± 1.6	0.937 ± 0.02
308.15 K, x2 = 0.6999	798.43 ± 1.6	0.843 ± 0.018
308.15 K, x2 = 0.8	785.85 ± 1.6	0.754 ± 0.016
308.15 K, x2 = 0.9	771.88 ± 1.6	0.673 ± 0.014
313.15 K, x2 = 0	855.85 ± 1.7	1.453 ± 0.032
313.15 K, x2 = 0.0999	849.16 ± 1.7	1.351 ± 0.03
313.15 K, x2 = 0.2	841.89 ± 1.7	1.251 ± 0.027
313.15 K, x2 = 0.3	834.02 ± 1.7	1.152 ± 0.025
313.15 K, x2 = 0.4001	825.43 ± 1.7	1.057 ± 0.023
313.15 K, x2 = 0.4998	816.01 ± 1.6	0.963 ± 0.021
313.15 K, x2 = 0.5999	805.67 ± 1.6	0.872 ± 0.019
313.15 K, x2 = 0.6999	794.22 ± 1.6	0.787 ± 0.017
313.15 K, x2 = 0.8	781.6 ± 1.6	0.707 ± 0.015
313.15 K, x2 = 0.9	767.57 ± 1.5	0.631 ± 0.014
318.15 K, x2 = 0	851.74 ± 1.7	1.341 ± 0.029
318.15 K, x2 = 0.0999	845.04 ± 1.7	1.252 ± 0.027
318.15 K, x2 = 0.2	837.76 ± 1.7	1.161 ± 0.025
318.15 K, x2 = 0.3	829.87 ± 1.7	1.072 ± 0.023
318.15 K, x2 = 0.4001	821.28 ± 1.6	0.986 ± 0.021
318.15 K, x2 = 0.4998	811.84 ± 1.6	0.904 ± 0.02
318.15 K, x2 = 0.5999	801.47 ± 1.6	0.822 ± 0.018
318.15 K, x2 = 0.6999	789.99 ± 1.6	0.743 ± 0.016
318.15 K, x2 = 0.8	777.33 ± 1.6	0.668 ± 0.014
318.15 K, x2 = 0.9	763.25 ± 1.5	0.598 ± 0.013
323.15 K, x2 = 0	847.62 ± 1.7	1.245 ± 0.027
323.15 K, x2 = 0.0999	840.91 ± 1.7	1.163 ± 0.025
323.15 K, x2 = 0.2	833.62 ± 1.7	1.083 ± 0.024
323.15 K, x2 = 0.3	825.72 ± 1.7	1.003 ± 0.022
323.15 K, x2 = 0.4001	817.11 ± 1.6	0.925 ± 0.02
323.15 K, x2 = 0.4998	807.66 ± 1.6	0.847 ± 0.018
323.15 K, x2 = 0.5999	797.25 ± 1.6	0.772 ± 0.017
323.15 K, x2 = 0.6999	785.75 ± 1.6	0.7 ± 0.015
323.15 K, x2 = 0.8	773.05 ± 1.6	0.632 ± 0.014
323.15 K, x2 = 0.9	758.92 ± 1.5	0.567 ± 0.012
